Tests used:
[1] = target: Cyclin-dependent kinase 2 (Homo sapiens, UniProt P24941); assay: In vitro inhibition of Cyclin-dependent kinase 2
[2] = test system: MDA-MB-435; assay: Inhibitory concentration against human breast carcinoma cell line proliferation; assay type: functional, cell-based
[3] = test system: RKO; assay: Inhibitory concentration against human colon cancer (RKO) cell line proliferation; assay type: functional, cell-based
[4] = Inhibition of blocked progression of G0 synchronized cell into S phase using G1-S cell cycle progression assay; assay type: functional

Compound	IC50 [1]	IC50 [2]	IC50 [4]	IC50 [3]
O=C1Nc2ccc(F)c3c(OCCO)cc(-c4ccc[nH]4)c1c23	62 nM	580 nM	10900 nM	500 nM
NCC[S+]([O-])c1cc(-c2ccc[nH]2)c2c3c(ccc(F)c13)NC2=O (centres undefined)	28 nM	1210 nM	1870 nM	420 nM
O=C1Nc2ccc(F)c3c(OCCCO)cc(-c4ccc[nH]4)c1c23	18 nM			
NCCSc1cc(-c2ccc[nH]2)c2c3c(ccc(F)c13)NC2=O	3 nM	310 nM	810 nM	100 nM
NCCS(=O)(=O)c1cc(-c2ccc[nH]2)c2c3c(ccc(F)c13)NC2=O	23 nM	1080 nM		430 nM
N#CCCc1cc(-c2ccc[nH]2)c2c3c(ccc(F)c13)NC2=O	5 nM			
O=C1Nc2ccc(F)c3c(S(=O)(=O)CCO)cc(-c4ccc[nH]4)c1c23	15 nM	3200 nM		1200 nM
CC(C)Cc1cc(-c2ccc[nH]2)c2c3c(ccc(F)c13)NC2=O	124 nM			
NCCNc1cc(-c2ccc[nH]2)c2c3c(ccc(F)c13)NC2=O			1490 nM	
CCOc1cc(-c2ccc[nH]2)c2c3c(ccc(F)c13)NC2=O	77 nM			
CCc1cc(-c2ccc[nH]2)c2c3c(ccc(F)c13)NC2=O	72 nM			
CC(=O)NCCNc1cc(-c2ccc[nH]2)c2c3c(ccc(F)c13)NC2=O	127 nM			
CC(C)(C)OC(=O)NCCNc1cc(-c2ccc[nH]2)c2c3c(ccc(F)c13)NC2=O	5500 nM			
CC(C)(N)CNc1cc(-c2ccc[nH]2)c2c3c(ccc(F)c13)NC2=O	65 nM	160 nM	1670 nM	110 nM
O=C1Nc2ccc(F)c3c(NCCO)cc(-c4ccc[nH]4)c1c23	54 nM	620 nM	2390 nM	740 nM
Cc1cc(-c2ccc[nH]2)c2c3c(ccc(F)c13)NC2=O	376 nM			
O=C1Nc2ccc(F)c3c(S[C@H]4CCNC4)cc(-c4ccc[nH]4)c1c23	5 nM	120 nM		70 nM

The next lines start with results.

IC50 [1]	IC50 [2]	IC50 [4]	Compound	IC50 [3]
18 nM	890 nM	7100 nM	COc1cc(-c2ccc[nH]2)c2c3c(ccc(F)c13)NC2=O	750 nM
7 nM			NCCCc1cc(-c2ccc[nH]2)c2c3c(ccc(F)c13)NC2=O	
204 nM	2280 nM	> 30000 nM	O=C1Nc2ccc(F)c3ccc(-c4ccc[nH]4)c1c23	5950 nM
18 nM	210 nM		O=C1Nc2ccc(F)c3c(SC[C@@H]4CCCN4)cc(-c4ccc[nH]4)c1c23	60 nM
14 nM	1730 nM	2740 nM	O=C1Nc2ccc(F)c3c(SCCO)cc(-c4ccc[nH]4)c1c23	1480 nM
48 nM	70 nM	2040 nM	NCCCNc1cc(-c2ccc[nH]2)c2c3c(ccc(F)c13)NC2=O	120 nM
294 nM			CCN(CC)CCNc1cc(-c2ccc[nH]2)c2c3c(ccc(F)c13)NC2=O	
12 nM	380 nM	910 nM	NCCOc1cc(-c2ccc[nH]2)c2c3c(ccc(F)c13)NC2=O	110 nM
> 1000 nM			CC(=O)OCCCOc1cc(-c2ccc[nH]2)c2c3c(ccc(F)c13)NC2=O	

Reference: ChEMBL document CHEMBL1136123, “3,5,6-Trisubstituted naphthostyrils as CDK2 inhibitors” (Bioorg Med Chem Lett, 2003)
